Reference: US8338418B2, “Dual-acting antihypertensive agents” (Theravance, Inc., priority 2008, dated 2012)

Assays:
[1] = molecular target: T1, NEP enzyme (Homo sapiens, UniProt P08473); assay: In vitro NEP enzyme inhibition assay; type: biochemical; conditions: fluorogenic peptide substrate; read-out: pIC50 for the NEP enzyme (converted)
T1 construct: purchased R&D Systems, Minneapolis, Minn; 1182-ZN
Description: The inhibitory activities of compounds at human and rat NEP and human ACE were determined using in vitro assays as described below.
Rat NEP was prepared from the kidneys of adult Sprague Dawley rats. Whole kidneys were washed in cold PBS and brought up in ice-cold lysis buffer (1% Triton X-114, 150 mM NaCl, 50 mM Tris pH 7.5; Bordier (1981) J. Biol. Chem. 256:1604-1607) in a ratio of 5 mL of buffer for every gram of kidney. Samples were homogenized using a polytron hand held tissue grinder on ice. Homogenates were centrifuged at 1000×g in a swinging bucket rotor for 5 minutes at 3° C. The pellet was resuspended in 20 mL of ice cold lysis buffer and incubated on ice for 30 minutes. […] Protein concentrations were quantitated using a BCA detection system with BSA as a standard. […]
The assays were performed in 384-well white opaque plates at room temperature using the respective fluorogenic peptides at a concentration of 10 μM in Assay Buffer (50 mM Tris/HCl at 25° C., 100 mM NaCl, 0.01% Tween-20, 1 μM Zn, 0.025% BSA). […] The rat NEP enzyme preparation was used at a concentration that yielded quantitative proteolysis of 3 μM of Mca-RRL within 20 minutes at room temperature. […]
Plates were read on a fluorometer with excitation and emission wavelengths set to 320 nm and 405 nm, respectively. […]

[2] = molecular target: T2, human AT1 receptor (Homo sapiens, UniProt P30556); assay: AT1 radioligand binding assay; conditions: [Eu]AngII displacement, CHO-K1 membranes expressing human AT1; read-out: pKi at the AT1 receptor (converted)
T2 construct: expressed in transfected cells; membrane preparation
T2 sequence (P30556 1-359): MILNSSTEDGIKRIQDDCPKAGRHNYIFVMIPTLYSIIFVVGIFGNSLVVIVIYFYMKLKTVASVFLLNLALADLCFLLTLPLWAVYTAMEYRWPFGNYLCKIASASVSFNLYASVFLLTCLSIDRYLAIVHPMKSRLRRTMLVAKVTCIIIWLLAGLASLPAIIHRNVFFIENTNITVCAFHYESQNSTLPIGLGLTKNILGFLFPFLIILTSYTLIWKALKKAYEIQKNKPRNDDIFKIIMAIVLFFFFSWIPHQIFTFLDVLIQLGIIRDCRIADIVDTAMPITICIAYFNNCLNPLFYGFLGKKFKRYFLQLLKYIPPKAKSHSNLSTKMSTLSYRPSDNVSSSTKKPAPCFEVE
Description: These in vitro assays were used to assess the ability of test compounds to bind to the AT1 and the AT2 receptors.
Membrane Preparation from Cells Expressing Human AT1 or AT2 Receptors
Chinese hamster ovary (CHO-K1) derived cell lines stably expressing the cloned human AT1 or AT2 receptors, respectively, were grown in HAM's-F12 medium supplemented with 10% fetal bovine serum, 10 μg/ml penicillin/streptomycin, and 500 μg/ml geneticin in a 5% CO2 humidified incubator at 37° C. AT2 receptor expressing cells were grown in the additional presence of 100 nM PD123,319 (AT2 antagonist). When cultures reached 80-95% confluence, the cells were washed thoroughly in PBS and lifted with 5 mM EDTA. Cells were pelleted by centrifugation and snap frozen in MeOH-dry ice and stored at −80° C. until further use.
For membrane preparation, cell pellets were resuspended in lysis buffer (25 mM Tris/HCl pH 7.5 at 4° C., 1 mM EDTA, and one tablet of Complete Protease Inhibitor Cocktail Tablets with 2 mM EDTA per 50 mL buffer (Roche cat. #1697498, Roche Molecular Biochemicals, Indianapolis, Ind.)) and homogenized using a tight-fitting Dounce glass homogenizer (10 strokes) on ice. The homogenate was centrifuged at 1000×g, the supernatant was collected and centrifuged at 20,000×g. […] Protein concentration of the membrane suspension was determined by the method described in Bradford (1976) Anal Biochem. 72:248-54. […]

T1 sequence (P08473 52-750 limits assumed): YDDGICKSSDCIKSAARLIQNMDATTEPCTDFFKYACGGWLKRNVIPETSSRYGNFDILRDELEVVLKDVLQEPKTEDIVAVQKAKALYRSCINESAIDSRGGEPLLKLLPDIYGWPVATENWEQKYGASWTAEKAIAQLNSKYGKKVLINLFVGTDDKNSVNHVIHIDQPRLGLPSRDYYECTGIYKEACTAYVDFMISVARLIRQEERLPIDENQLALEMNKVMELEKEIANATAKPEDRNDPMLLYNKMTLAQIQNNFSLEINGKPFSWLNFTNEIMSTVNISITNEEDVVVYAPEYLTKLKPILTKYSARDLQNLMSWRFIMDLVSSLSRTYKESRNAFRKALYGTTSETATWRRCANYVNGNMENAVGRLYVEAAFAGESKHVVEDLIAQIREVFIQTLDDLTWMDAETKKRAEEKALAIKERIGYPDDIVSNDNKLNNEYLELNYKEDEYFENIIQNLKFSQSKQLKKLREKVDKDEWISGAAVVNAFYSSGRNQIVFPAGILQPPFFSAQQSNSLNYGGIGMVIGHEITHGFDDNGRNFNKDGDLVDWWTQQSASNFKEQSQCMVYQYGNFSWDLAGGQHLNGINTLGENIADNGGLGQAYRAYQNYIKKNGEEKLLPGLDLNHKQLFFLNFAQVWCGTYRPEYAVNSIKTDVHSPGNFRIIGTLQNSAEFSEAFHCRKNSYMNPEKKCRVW

For CCCCc1nc(C(=O)N[C@@H](CC(=O)NO)Cc2ccccc2)cn1Cc1ccc(C(=O)O)cc1 [Example 1, 4-[4-((R)-1-benzyl-2-hydroxycarbamoylethylcarbamoyl)-2-butyl-imidazol-1-ylmethyl]benzoic Acid], the IC50 [1] was ≤ 0.1 µM and the Ki [2] was < 10 µM.
